The values below come from article PMC7751408, “Production, purification and biochemical characterisation of a novel lipase from a newly identified lipolytic bacterium Staphylococcus caprae NCU S6” (Journal of Enzyme Inhibition and Medicinal Chemistry, 2020).

This assay relates to T1, SCNL (lipase from Staphylococcus caprae NCU S6).
T1 construct: native extracellular enzyme purified from culture supernatant of the source strain (ammonium sulphate, ultrafiltration, Sephadex G-50, DEAE-Sepharose); ~87 kDa by SDS-PAGE
Kind of assay: colorimetric p-nitrophenol release at […] nm, Lineweaver-Burk. In kind it is biochemical. Conditions: 0.1-5.0 mM p-NPP, optimum conditions (optimal pH 9.0 and 40 °C); free enzyme.

As to `CCCCCCCCCCCCCCCC(=O)Oc1ccc([N+](=O)[O-])cc1` [p-nitrophenyl palmitate], the Km – broadly, the concentration of substrate that gives half-maximal velocity – amounted to 695 µM.
